According to ChEMBL document CHEMBL3885881, “DrugMatrix”:

Species on record: Rattus norvegicus
Experiment: DrugMatrix - Regimen: Daily Repeat
Assay type: toxicity, organism-based, Sprague-Dawley
Parameters: regimen Daily Repeat, gender Male, age 6-8 weeks
Settings: in vivo, po, route oral GAVAGE, vehicle .5 % CMC; for ABSOLUTE BASOPHIL / ABSOLUTE EOSINOPHIL / ABSOLUTE LYMPHOCYTE / ABSOLUTE MONOCYTE / ABSOLUTE SEGMENTED NEUTROPHIL / BASOPHIL / EOSINOPHIL / ERYTHROCYTE COUNT / HEMATOCRIT / HEMOGLOBIN / LEUKOCYTE COUNT / LYMPHOCYTE / MEAN CORPUSCULAR HEMOGLOBIN / MEAN CORPUSCULAR HEMOGLOBIN CONCENTRATION / MEAN CORPUSCULAR VOLUME / MONOCYTE / NEUTROPHIL / NUCLEATED RED BLOOD CELLS / PLATELET COUNT: tissue Blood; for ALANINE AMINOTRANSFERASE / ALBUMIN / ALKALINE PHOSPHATASE / ASPARTATE AMINOTRANSFERASE / BLOOD UREA NITROGEN / CARBON DIOXIDE / CHLORIDE / CHOLESTEROL / CREATINE PHOSPHOKINASE / CREATININE / GLUCOSE / LACTATE DEHYDROGENASE / LIPASE / PHOSPHORUS / POTASSIUM / SODIUM / TOTAL BILIRUBIN / TOTAL PROTEIN / URIC ACID: tissue Plasma
[1] = 15 mg/kg, 120 h, dose level Low, time 5 day
[2] = 710 mg/kg, 72 h, dose level High, time 3 day
[3] = 710 mg/kg, 120 h, dose level High, time 5 day

SMILES: CN1C(=O)CN=C(c2ccccc2)c2cc(Cl)ccc21 [DIAZEPAM]
- ABSOLUTE BASOPHIL [1]: 0 CELLS/uL
- ABSOLUTE EOSINOPHIL [1]: 72 CELLS/uL
- ABSOLUTE LYMPHOCYTE [1]: 10533.67 CELLS/uL
- ABSOLUTE MONOCYTE [1]: 40.33 CELLS/uL
- ABSOLUTE SEGMENTED NEUTROPHIL [1]: 587.33 CELLS/uL
- BASOPHIL [1]: 0%
- EOSINOPHIL [1]: 0.67%
- ERYTHROCYTE COUNT [1]: 5.7 x10E6/uL
- HEMATOCRIT [1]: 36.2%
- HEMOGLOBIN [1]: 14.23 G/DL
- LEUKOCYTE COUNT [1]: 11.23 x10E3/uL
- LYMPHOCYTE [1]: 93.67%
- MEAN CORPUSCULAR HEMOGLOBIN [1]: 25.07 pg
- MEAN CORPUSCULAR HEMOGLOBIN CONCENTRATION [1]: 39.37 G/DL
- MEAN CORPUSCULAR VOLUME [1]: 63.67 fL
- MONOCYTE [1]: 0.33%
- NEUTROPHIL [1]: 5.33%
- NUCLEATED RED BLOOD CELLS [1]: 0 /100WBC
- PLATELET COUNT [1]: 1134.33 x10E3/uL
- ALANINE AMINOTRANSFERASE [1]: 51.33 u/L
- ALBUMIN [1]: 4.17 G/DL
- ALKALINE PHOSPHATASE [1]: 404.33 u/L
- ASPARTATE AMINOTRANSFERASE [1]: 80.33 u/L
- BLOOD UREA NITROGEN [1]: 16.33 mg/dL
- CARBON DIOXIDE [1]: 27.67 mmol/L
- CHLORIDE [1]: 101.67 MEQ/L
- CHOLESTEROL [1]: 58.67 mg/dL
- CREATINE PHOSPHOKINASE [1]: 231 u/L
- CREATININE [1]: 0.18 mg/dL
- GLUCOSE [1]: 147.67 mg/dL
- LACTATE DEHYDROGENASE [1]: 117.67 u/L
- LIPASE [1]: 9 u/L
- PHOSPHORUS [1]: 12.13 mg/dL
- POTASSIUM [1]: 7.09 MEQ/L
- SODIUM [1]: 143.97 MEQ/L
- TOTAL BILIRUBIN [1]: 0.23 mg/dL
- TOTAL PROTEIN [1]: 5.93 G/DL
- URIC ACID [1]: 1.43 mg/dL
- ABSOLUTE BASOPHIL [2]: 0 CELLS/uL
- ABSOLUTE EOSINOPHIL [2]: 125.67 CELLS/uL
- ABSOLUTE LYMPHOCYTE [2]: 9703.33 CELLS/uL
- ABSOLUTE MONOCYTE [2]: 42.33 CELLS/uL
- ABSOLUTE SEGMENTED NEUTROPHIL [2]: 1128.67 CELLS/uL
- BASOPHIL [2]: 0%
- EOSINOPHIL [2]: 1%
- ERYTHROCYTE COUNT [2]: 5.78 x10E6/uL
- HEMATOCRIT [2]: 35.37%
- HEMOGLOBIN [2]: 13.83 G/DL
- LEUKOCYTE COUNT [2]: 11 x10E3/uL
- LYMPHOCYTE [2]: 88.33%
- MEAN CORPUSCULAR HEMOGLOBIN [2]: 23.93 pg
- MEAN CORPUSCULAR HEMOGLOBIN CONCENTRATION [2]: 39.1 G/DL
- MEAN CORPUSCULAR VOLUME [2]: 61.17 fL
- MONOCYTE [2]: 0.33%
- NEUTROPHIL [2]: 10.33%
- NUCLEATED RED BLOOD CELLS [2]: 0 /100WBC
- PLATELET COUNT [2]: 1330.67 x10E3/uL
- ALANINE AMINOTRANSFERASE [2]: 69.67 u/L
- ALBUMIN [2]: 4.07 G/DL
- ALKALINE PHOSPHATASE [2]: 240 u/L
- ASPARTATE AMINOTRANSFERASE [2]: 86.67 u/L
- BLOOD UREA NITROGEN [2]: 14 mg/dL
- CARBON DIOXIDE [2]: 33.33 mmol/L
- CHLORIDE [2]: 101.33 MEQ/L
- CHOLESTEROL [2]: 106.33 mg/dL
- CREATINE PHOSPHOKINASE [2]: 222 u/L
- CREATININE [2]: 0.21 mg/dL
- GLUCOSE [2]: 159 mg/dL
- LACTATE DEHYDROGENASE [2]: 204.67 u/L
- LIPASE [2]: 10.67 u/L
- PHOSPHORUS [2]: 12.7 mg/dL
- POTASSIUM [2]: 6.45 MEQ/L
- SODIUM [2]: 143.1 MEQ/L
- TOTAL BILIRUBIN [2]: 0.2 mg/dL
- TOTAL PROTEIN [2]: 5.53 G/DL
- URIC ACID [2]: 1.27 mg/dL
- ABSOLUTE BASOPHIL [3]: 0 CELLS/uL
- ABSOLUTE EOSINOPHIL [3]: 31.67 CELLS/uL
- ABSOLUTE LYMPHOCYTE [3]: 10193.33 CELLS/uL
- ABSOLUTE MONOCYTE [3]: 269 CELLS/uL
- ABSOLUTE SEGMENTED NEUTROPHIL [3]: 1672.67 CELLS/uL
- BASOPHIL [3]: 0%
- EOSINOPHIL [3]: 0.33%
- ERYTHROCYTE COUNT [3]: 5.59 x10E6/uL
- HEMATOCRIT [3]: 34.87%
- HEMOGLOBIN [3]: 13.8 G/DL
- LEUKOCYTE COUNT [3]: 12.17 x10E3/uL
- LYMPHOCYTE [3]: 84%
- MEAN CORPUSCULAR HEMOGLOBIN [3]: 24.77 pg
- MEAN CORPUSCULAR HEMOGLOBIN CONCENTRATION [3]: 39.6 G/DL
- MEAN CORPUSCULAR VOLUME [3]: 62.47 fL
- MONOCYTE [3]: 2.33%
- NEUTROPHIL [3]: 13.33%
- NUCLEATED RED BLOOD CELLS [3]: 0 /100WBC
- PLATELET COUNT [3]: 1299.67 x10E3/uL
- ALANINE AMINOTRANSFERASE [3]: 81.67 u/L
- ALBUMIN [3]: 3.93 G/DL
- ALKALINE PHOSPHATASE [3]: 319.33 u/L
- ASPARTATE AMINOTRANSFERASE [3]: 104.67 u/L
- BLOOD UREA NITROGEN [3]: 13.67 mg/dL
- CARBON DIOXIDE [3]: 25.33 mmol/L
- CHLORIDE [3]: 101 MEQ/L
- CHOLESTEROL [3]: 119.67 mg/dL
- CREATINE PHOSPHOKINASE [3]: 535.33 u/L
- CREATININE [3]: 0.16 mg/dL
- GLUCOSE [3]: 133.33 mg/dL
- LACTATE DEHYDROGENASE [3]: 507 u/L
- LIPASE [3]: 11.33 u/L
- PHOSPHORUS [3]: 11.5 mg/dL
- POTASSIUM [3]: 5.38 MEQ/L
- SODIUM [3]: 142.53 MEQ/L
- TOTAL BILIRUBIN [3]: 0.13 mg/dL
- TOTAL PROTEIN [3]: 5.7 G/DL
- URIC ACID [3]: 1.23 mg/dL
